The results in this text go back to paper PMC4974772, “In vitro anti-Leishmania activity of tetracyclic iridoids from Morinda lucida, benth” (Tropical Medicine and Health, 2016).

Where “and” joins values, the source holds several entries; their conditions need not be identical. Equal values may be shown once. Read-outs that look alike come from different tables or passages of the source.

Experiment [1] deals with HF-19 (normal lung fibroblasts). Briefly: Cytotoxicity on normal lung fibroblasts HF-19. The class given is cell-based. The following applies: 48 h. The procedure: (§1) Table 2 Selective index of compounds tested for anti-Leishmania activity | column: IC50 (μM), 48 h / ML-2-2; IC50 (μM), 48 h / ML-2-3; IC50 (μM), 48 h / ML-F52; SI / ML-2-2; SI / ML-2-3; SI / ML-F52
For another experiment, the system named is L. hertigi parasites. The experiment can be described thus: Fluor-microscopy analysis using DAPI (nucleus/kinetoplast count, morphology). The class given is cell-based, Leishmania hertigi. Particulars: 4 μM, 48 h, DAPI staining. The procedure: Parasites were incubated for 24 h under appropriate conditions (25 °C) with appropriate concentrations of active compounds, Molucidin and ML-F52. Parasites were then harvested and fixed with 4 % paraformaldehyde at room temperature for 5 min. Washing steps were carried out with PBS and PBST (0.1 % Triton X 100 in PBS) at room temperature for 5 min and 15 min, respectively. The parasites were stained with 4’,6-diamidino-2’-phenylindole dihydrochloride (DAPI) (5 μg/ml DAPI in PBS) for 10 min. After washing steps as above, the slides were mounted using parmafluor mounting reagent and covered with cover slips. The slides were observed under the Olympus fluorescent microscope (Olympus BX53) to detect any phenotypic changes in L. hertigi parasites.
To investigate the effect of Molucidin and ML-F52 on the morphology and cell division of L. hertigi, we performed fluor-microscope observation with DAPI staining after incubation of parasite with 4 μM of Molucidin and ML-F52 for 48 h. […] The inhibition of cytokinesis might imply the inability of cells to replicate in the mammalian host and increase the parasite burden. This may prevent the parasites from over running the host-immune and may give the host the edge to clear the infection. […]

The next experiment has as its system Hs-888Lu (normal lung). Briefly: Cytotoxicity on normal lung Hs-888Lu. The class given is cell-based. The following applies: 48 h. As to the method: as §1
The subject of experiment [2] is Chang Liver (normal liver). The experiment can be described thus: Cytotoxicity on normal liver Chang Liver. The class given is cell-based. Particulars: 48 h. The procedure:
as §1

In experiment [3] the test system is Leishmania 010 (field strain of L. enriettii) promastigotes. The experiment can be described thus: MIC by microscopy on Leishmania field strain 010 promastigotes. The class given is cell-based, L. enriettii (010). As to the method:
(§2) The field strain of L. enriettii (010) promastigotes, which had been isolated in Ghana, and the lab strain, Leishmania hertigi promastigotes, were used in this study because of their availability. Parasites were cultured in vitro according to conditions established previously. Log phase of parasites (1 × 10^6 parasites/ml) was diluted to a parasitemia of 3 × 10^5 parasites/ml with M199 medium and used for the drug assay. Estimation of parasitemia was done with the Neubauer’s counting chamber.
Promastigotes of Leishmania 010 were seeded and incubated in the presence or absence of (50–0.78 μM) compounds for 96 h and the minimum inhibitory concentration (MIC) of the compounds determined by microscopy.
The aim of the study was to investigate the anti-Leishmania properties of the three novel tetracyclic iridoid compounds previously found to have anti-trypanosome activity. In the determination of the effect of Molucidin, ML-2-3, and ML-F52 on L. hertigi and 010, parasites were challenged with 0–50 μM of each compound for 48 and 96 h to determine MIC and the concentration of compounds that inhibited parasite growth by 50 % (IC50) by microscopy and fluorescence-activated cell sorting (FACS) analysis, respectively. […] All three compounds share same side chains, iridoid tetracyclic skeleton, but differ in their functional group region. […]

The test system of experiment [4] is NBIRGB (normal skin fibroblasts). The experiment can be described thus: Cytotoxicity on normal skin fibroblasts NBIRGB. Type of experiment: cell-based. Particulars: 48 h. As to the method:
as §1

The test system of experiment [5] is Leishmania hertigi promastigotes. Briefly: In vitro viacount assay (Guava viacount, FACS) on L. hertigi promastigotes. Type of experiment: cell-based. As to the method:
as §2
Leishmania promastigote forms of L. hertigi parasites were seeded and incubated in the presence or absence of (50–0.78 μM) compounds (dissolved in DMSO) for 48 h, after which the Guava reagent for viacount (Millipore) was added to the culture in the ratio of 1:1 and incubated for 30 min. Analysis was performed using the Millipore guava easyCyte 5HT (USA) according to the manufacture’s instruction.
The aim of the study was to investigate the anti-Leishmania properties of the three novel tetracyclic iridoid compounds previously found to have anti-trypanosome activity. In the determination of the effect of Molucidin, ML-2-3, and ML-F52 on L. hertigi and 010, parasites were challenged with 0–50 μM of each compound for 48 and 96 h to determine MIC and the concentration of compounds that inhibited parasite growth by 50 % (IC50) by microscopy and fluorescence-activated cell sorting (FACS) analysis, respectively. […] All three compounds share same side chains, iridoid tetracyclic skeleton, but differ in their functional group region. Molucidin and ML-F52 are esters while ML-2-3 is carboxylic acid. The functional groups may play a key role in the activity of the compounds against Leishmania.

With `COC(=O)C1=CO[C@@H]2O[C@H]3/C(=C\c4ccc(O)c(OC)c4)C(=O)O[C@]34C=C[C@H]1[C@H]24` [Molucidin], the IC50 in experiment [1] was determined as 14.2 µM; in the experiment on Hs-888Lu (normal lung) it was 9.29 µM; in experiment [2] it was 9.34 µM; in experiment [4] it was 7.11 µM; in experiment [5] (promastigotes, 48 h, 50–0.78 μM, Guava viacount FACS, read-out: IC50 after 48 h (L. hertigi)), 4.24 µM. Further, in the experiment on L. hertigi parasites, the “effect on parasite morphology” value is given as “induced short stumpy form parasite cells”. Besides, the “2N/2K cells (two sets of nucleus and kinetoplast)” value in the experiment with L. hertigi parasites (microscopic counting, DMSO-treated cells 10 % 2N/2K) is 30–40%. For the same compound, the “anti-Leishmania activity” value is “had anti-Leishmania activity” in experiment [3] (010 field strain, 0–50 μM, 96 h) and “had anti-Leishmania activity” in experiment [5] (L. hertigi, 0–50 μM, 48 h). In experiment [3] (promastigotes, 50–0.78 μM, microscopy), the “MIC after 96 h (010)” value was 4.167 µM and 4.17 µM.

For `C[C@@H]1[C@H](O)[C@@H](C)/C=C/C=C/C=C/C=C/C=C/C=C/C=C/[C@H](O[C@@H]2O[C@H](C)[C@@H](O)[C@H](N)[C@@H]2O)C[C@@H]2O[C@](O)(C[C@@H](O)C[C@@H](O)[C@H](O)CC[C@@H](O)C[C@@H](O)CC(=O)O[C@H]1C)C[C@H](O)[C@H]2C(=O)O` [amphotericin B, reference compound], in experiment [5] (Leishmania hertigi, positive control, strain not stated in footnote, read-out: IC50 of amphotericin B (positive control)), the half-maximal inhibitory concentration (IC50) came to 0.1 µg/mL.
